PubChem BioAssay (NCI)
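96-well plates; 48 h exposure; 5 concentrations. Endpoints by linear interpolation between flanking doses. Not reached: highest tested concentration assigned. TGI: concentration producing complete growth inhibition.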

Experiments:
Experiment in all cases: NCI-60 cell line screen, 48 h
HCT-15 colon = test system: HCT-15 colon
HT29 colon = test system: HT29 colon
SN12C renal = test system: SN12C renal
LOX IMVI melanoma = test system: LOX IMVI melanoma
MDA-MB-231 breast = test system: MDA-MB-231 breast
OVCAR-3 ovarian = test system: OVCAR-3 ovarian
SK-MEL-28 melanoma = test system: SK-MEL-28 melanoma
SF-295 CNS = test system: SF-295 CNS
MALME-3M melanoma = test system: MALME-3M melanoma
K-562 leukemia = test system: K-562 leukemia
RPMI-8226 leukemia = test system: RPMI-8226 leukemia
CAKI-1 renal = test system: CAKI-1 renal
SW-620 colon = test system: SW-620 colon
SNB-19 CNS = test system: SNB-19 CNS
SR leukemia = test system: SR leukemia
SK-OV-3 ovarian = test system: SK-OV-3 ovarian
HL-60(TB) leukemia = test system: HL-60(TB) leukemia
DU-145 prostate = test system: DU-145 prostate
SK-MEL-5 melanoma = test system: SK-MEL-5 melanoma
SNB-75 CNS = test system: SNB-75 CNS
KM12 colon = test system: KM12 colon
A549 NSCLC = test system: A549 NSCLC
NCI-H226 lung = test system: NCI-H226 lung
OVCAR-8 ovarian = test system: OVCAR-8 ovarian
M14 melanoma = test system: M14 melanoma
SK-MEL-2 melanoma = test system: SK-MEL-2 melanoma
COLO 205 colon = test system: COLO 205 colon
MDA-MB-435 = test system: MDA-MB-435
RXF 393 renal = test system: RXF 393 renal
MOLT-4 leukemia = test system: MOLT-4 leukemia
IGROV1 ovarian = test system: IGROV1 ovarian
NCI/ADR-RES ovarian = test system: NCI/ADR-RES ovarian
CCRF-CEM leukemia = test system: CCRF-CEM leukemia
BT-549 breast = test system: BT-549 breast
SF-539 CNS = test system: SF-539 CNS
OVCAR-5 ovarian = test system: OVCAR-5 ovarian
HS 578T breast = test system: HS 578T breast
TK-10 renal = test system: TK-10 renal
EKVX NSCLC = test system: EKVX NSCLC
A498 renal = test system: A498 renal
MCF7 breast = test system: MCF7 breast
PC-3 prostate = test system: PC-3 prostate
NCI-H522 lung = test system: NCI-H522 lung
OVCAR-4 ovarian = test system: OVCAR-4 ovarian
UO-31 renal = test system: UO-31 renal
HOP-62 NSCLC = test system: HOP-62 NSCLC
HCT-116 colon = test system: HCT-116 colon
MDA-N = test system: MDA-N
SF-268 CNS = test system: SF-268 CNS
NCI-H23 lung = test system: NCI-H23 lung
UACC-62 melanoma = test system: UACC-62 melanoma
U251 CNS = test system: U251 CNS
T-47D breast = test system: T-47D breast
HOP-92 NSCLC = test system: HOP-92 NSCLC
786-0 renal = test system: 786-0 renal
UACC-257 melanoma = test system: UACC-257 melanoma
ACHN renal = test system: ACHN renal
NCI-H460 lung = test system: NCI-H460 lung
HCC-2998 colon = test system: HCC-2998 colon

COc1ccc(-c2nc3ccccc3c(=O)[nH]2)cc1
TGI (HCT-15 colon): > 100 µM | TGI (HT29 colon): > 100 µM | TGI (SN12C renal): > 100 µM | TGI (LOX IMVI melanoma): > 100 µM | TGI (MDA-MB-231 breast): > 100 µM | TGI (OVCAR-3 ovarian): > 100 µM | TGI (SK-MEL-28 melanoma): > 100 µM | TGI (SF-295 CNS): > 100 µM | TGI (MALME-3M melanoma): > 100 µM | TGI (K-562 leukemia): > 100 µM | TGI (RPMI-8226 leukemia): > 100 µM | TGI (CAKI-1 renal): > 100 µM | TGI (SW-620 colon): > 100 µM | TGI (SNB-19 CNS): > 100 µM | TGI (SR leukemia): > 100 µM | TGI (SK-OV-3 ovarian): > 100 µM | TGI (HL-60(TB) leukemia): > 100 µM | TGI (DU-145 prostate): > 100 µM | TGI (SK-MEL-5 melanoma): > 100 µM | TGI (SNB-75 CNS): 84.9 µM | TGI (KM12 colon): > 100 µM | TGI (A549 NSCLC): > 100 µM | TGI (NCI-H226 lung): > 100 µM | TGI (OVCAR-8 ovarian): > 100 µM | TGI (M14 melanoma): > 100 µM | TGI (SK-MEL-2 melanoma): > 100 µM | TGI (COLO 205 colon): > 100 µM | TGI (MDA-MB-435): > 100 µM | TGI (RXF 393 renal): > 100 µM | TGI (MOLT-4 leukemia): > 100 µM | TGI (IGROV1 ovarian): > 100 µM | TGI (NCI/ADR-RES ovarian): > 100 µM | TGI (CCRF-CEM leukemia): > 100 µM | TGI (BT-549 breast): > 100 µM | TGI (SF-539 CNS): > 100 µM | TGI (OVCAR-5 ovarian): > 100 µM | TGI (HS 578T breast): 31.9 µM | TGI (TK-10 renal): > 100 µM | TGI (EKVX NSCLC): > 100 µM | TGI (A498 renal): > 100 µM | TGI (MCF7 breast): > 100 µM | TGI (PC-3 prostate): > 100 µM | TGI (NCI-H522 lung): > 100 µM | TGI (OVCAR-4 ovarian): 95.1 µM | TGI (UO-31 renal): > 100 µM | TGI (HOP-62 NSCLC): > 100 µM | TGI (HCT-116 colon): > 100 µM | TGI (MDA-N): > 100 µM | TGI (SF-268 CNS): > 100 µM | TGI (NCI-H23 lung): > 100 µM | TGI (UACC-62 melanoma): > 100 µM | TGI (U251 CNS): > 100 µM | TGI (T-47D breast): > 100 µM | TGI (HOP-92 NSCLC): > 100 µM | TGI (786-0 renal): > 100 µM | TGI (UACC-257 melanoma): > 100 µM

Clc1ccc(-c2cn3c(nc4ccccc43)c(-c3ccccc3)n2)cc1
TGI (HCT-15 colon): > 100 µM | TGI (HT29 colon): > 67.5 µM | TGI (SN12C renal): > 100 µM | TGI (LOX IMVI melanoma): > 100 µM | TGI (MDA-MB-231 breast): > 100 µM | TGI (OVCAR-3 ovarian): > 82.4 µM | TGI (SK-MEL-28 melanoma): > 100 µM | TGI (SF-295 CNS): 28.3 µM | TGI (MALME-3M melanoma): > 63.7 µM | TGI (K-562 leukemia): > 100 µM | TGI (RPMI-8226 leukemia): > 100 µM | TGI (CAKI-1 renal): 32.1 µM | TGI (SW-620 colon): > 100 µM | TGI (SNB-19 CNS): 32.6 µM | TGI (SR leukemia): > 100 µM | TGI (SK-OV-3 ovarian): 26.5 µM | TGI (HL-60(TB) leukemia): > 100 µM | TGI (DU-145 prostate): > 100 µM | TGI (SK-MEL-5 melanoma): 46.5 µM | TGI (SNB-75 CNS): > 36.6 µM | TGI (KM12 colon): > 100 µM | TGI (A549 NSCLC): 51.4 µM | TGI (ACHN renal): 95.9 µM | TGI (NCI-H226 lung): > 100 µM | TGI (OVCAR-8 ovarian): 33 µM | TGI (M14 melanoma): > 87.4 µM | TGI (SK-MEL-2 melanoma): 38.8 µM | TGI (COLO 205 colon): > 100 µM | TGI (MDA-MB-435): > 100 µM | TGI (RXF 393 renal): > 49.2 µM | TGI (MOLT-4 leukemia): > 100 µM | TGI (IGROV1 ovarian): > 78.3 µM | TGI (NCI-H460 lung): > 57.4 µM | TGI (NCI/ADR-RES ovarian): > 100 µM | TGI (CCRF-CEM leukemia): > 100 µM | TGI (BT-549 breast): 50.2 µM | TGI (SF-539 CNS): > 69 µM | TGI (OVCAR-5 ovarian): > 55.9 µM | TGI (HS 578T breast): 66 µM | TGI (TK-10 renal): 62.2 µM | TGI (EKVX NSCLC): > 100 µM | TGI (A498 renal): 54 µM | TGI (MCF7 breast): > 100 µM | TGI (PC-3 prostate): 47 µM | TGI (NCI-H522 lung): 43.3 µM | TGI (OVCAR-4 ovarian): 25.2 µM | TGI (UO-31 renal): > 60 µM | TGI (HOP-62 NSCLC): 24.6 µM | TGI (HCT-116 colon): > 100 µM | TGI (MDA-N): > 100 µM | TGI (HCC-2998 colon): > 100 µM | TGI (SF-268 CNS): > 100 µM | TGI (NCI-H23 lung): 64.2 µM | TGI (UACC-62 melanoma): 26.7 µM | TGI (U251 CNS): 25.3 µM | TGI (T-47D breast): > 75.5 µM | TGI (HOP-92 NSCLC): 40.9 µM | TGI (786-0 renal): 15.2 µM | TGI (UACC-257 melanoma): > 100 µM
